Test results taken from US7700609B2, “Compositions useful as inhibitors of protein kinases” (Vertex Pharmaceuticals Incorporated, priority 2003, dated 2010).

How the values were obtained:
Itk [1] = molecular target: T1, Itk (Homo sapiens, UniProt Q08881); assay: Itk inhibition assay: Alphascreen (Method B); assay type: biochemical; settings: 100 μM ATP
T1 sequence (Q08881 1-620): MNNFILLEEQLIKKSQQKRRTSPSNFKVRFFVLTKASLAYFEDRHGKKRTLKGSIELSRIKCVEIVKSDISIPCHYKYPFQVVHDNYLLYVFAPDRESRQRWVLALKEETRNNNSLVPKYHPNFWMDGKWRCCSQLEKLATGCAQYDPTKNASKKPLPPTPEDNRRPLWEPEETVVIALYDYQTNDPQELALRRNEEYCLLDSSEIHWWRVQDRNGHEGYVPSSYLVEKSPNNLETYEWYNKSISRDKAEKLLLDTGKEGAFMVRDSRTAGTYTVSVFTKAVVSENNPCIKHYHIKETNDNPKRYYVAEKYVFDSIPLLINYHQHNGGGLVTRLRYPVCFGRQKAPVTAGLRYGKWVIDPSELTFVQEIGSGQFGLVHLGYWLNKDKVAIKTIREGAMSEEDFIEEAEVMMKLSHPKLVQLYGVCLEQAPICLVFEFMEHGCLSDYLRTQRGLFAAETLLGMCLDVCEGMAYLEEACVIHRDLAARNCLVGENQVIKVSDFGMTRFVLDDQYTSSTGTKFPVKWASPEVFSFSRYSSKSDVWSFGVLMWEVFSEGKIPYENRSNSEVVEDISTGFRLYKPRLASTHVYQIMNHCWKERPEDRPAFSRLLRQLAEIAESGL
Procedure: (§1) The compounds of the present invention were evaluated as inhibitors of human Itk kinase using either a radioactivity-based, spectrophotometric or alphascreen assay.
Assays were carried out in a mixture of 20 mM MOPS (pH 7.0), 10 mM MgCl2, 0.1% BSA and 1 mM DTT. Final substrate concentrations in the assay were 100 μM ATP (Sigma Chemicals) and 2 μM peptide (Biotinylated SAM68 Δ332-443). Assays were carried out at 25° C. and in the presence of 10 nM Itk. An assay stock buffer solution was prepared containing all of the reagents listed above, with the exception of ATP and the test compound of interest. 25 μL of the stock solution was placed in each well of a 96 well plate followed by 1 μL of DMSO containing serial dilutions of the test compound (typically starting from a final concentration of 15 μM) in duplicate (final DMSO concentration 2%). The plate was preincubated for 10 minutes at 25° C. and the reaction initiated by addition of 25 μL ATP (final concentration 100 μM). Background counts were determined by the addition of 5 μL 500 mM EDTA to control wells containing assay stock buffer and DMSO prior to initiation with ATP. The reaction was stopped after 30 minutes by diluting the reaction 225-fold into MOPS buffer (20 mM MOPS (pH 7.0), 1 mM DTT, 10 mM MgCl2, 0.1% BSA) containing 50 mM EDTA to bring the final concentration of peptide to 9 nM.
AlphaScreen™ reagents were prepared according to the manufacturers instructions (AlphaScreen™ phosphotyrosine (P-Tyr-100) assay kit, PerkinElmer catalogue number 6760620C). Under subdued lighting, 20 μL of AlphaScreen™ reagents were placed in each well of a white half area 96 well plate (Corning Inc.—COSTAR 3693) with 30 μL of the stopped, diluted kinase reactions. Plates were incubated in the dark for 60 minutes prior to reading on a Fusion Alpha plate reader (PerkinElmer).
After removing mean background values for all of the data points, Ki(app) data were calculated from non-linear regression analysis using the Prism software package (GraphPad Prism version 3.0cx for Macintosh, GraphPad Software, San Diego Calif., USA).

Itk [2] = molecular target: T1, Itk; assay: Itk inhibition assay: spectrophotometric coupled enzyme (Method C); assay type: biochemical; settings: 100 μM ATP, read-out: Ki in the standard coupled enzyme assay (Method C)
Procedure: as §1
Compounds were screened for their ability to inhibit Itk using a standard coupled enzyme assay (Fox et al., Protein Sci., (1998) 7, 2249).
Assays were carried out in a mixture of 20 mM MOPS (pH 7.0), 10 mM MgCl2, 0.1% BSA, 1 mM DTT, 2.5 mM phosphoenolpyruvate, 300 μM NADH, 30 μg/ml pyruvate kinase and 10 μg/ml lactate dehydrogenase. Final substrate concentrations in the assay were 100 μM ATP (Sigma Chemicals) and 3 μM peptide (Biotinylated SAM68 Δ332-443). Assays were carried out at 25° C. and in the presence of 10 nM Itk.
An assay stock buffer solution was prepared containing all of the reagents listed above, with the exception of ATP and the test compound of interest. 60 μl of the stock solution was placed in a 96 well plate followed by addition of 2 μl of DMSO stock containing serial dilutions of the test compound (typically starting from a final concentration of 15 μM). The plate was preincubated for 10 minutes at 25° C. and the reaction initiated by addition of 5 μl of ATP. Initial reaction rates were determined with a Molecular Devices SpectraMax Plus plate reader over a 10 minute time course. IC50 and Ki data were calculated from non-linear regression analysis using the Prism software package (GraphPad Prism version 3.0cx for Macintosh, GraphPad Software, San Diego Calif., USA).

Ki (Itk [1]) [nM] | Ki (Itk [2]) [nM] | SMILES
< 1000 | – | CNCCNC(=O)c1cc2c(ccc3cnc(Nc4cccc(S(N)(=O)=O)c4)nc32)s1 [Compound V-43]
< 1000 | – | NS(=O)(=O)c1cccc(Nc2ncc3ccc4sc(C(=O)N5CCCCC5)cc4c3n2)c1 [Compound V-36]
< 1000 | – | Cc1nc2ccc3cnc(Nc4cccc(S(N)(=O)=O)c4)nc3c2s1 [II-35]
< 1000 | – | CN(C)/C=N/S(=O)(=O)c1cccc(Nc2ncc3c(n2)-c2sc(N4CCN(C)CC4)nc2CC3)c1 [III-40]
< 1000 | – | CN(C)CCNC(=O)c1cc2c(ccc3cnc(Nc4cccc(S(N)(=O)=O)c4)nc32)s1 [Compound V-42]
< 1000 | – | NS(=O)(=O)c1cccc(Nc2ncc3ccc4sc(C(=O)N5CCOCC5)cc4c3n2)c1 [Compound V-37]
< 1000 | – | CC(C)(C)OC(=O)NC1CCN(C(=O)c2cc3c(ccc4cnc(Nc5cccc(S(N)(=O)=O)c5)nc43)s2)C1 (stereo not drawn) [Compound V-47]
– | < 1000 | O=C(c1cc2c(ccc3cnc(Nc4ccncc4)nc32)s1)N1CCNCC1 [Compound V-116]
– | < 1000 | CN(C)CCC(=O)Nc1cccc(Nc2ncc3ccc4sc(C(=O)N5CCOCC5)cc4c3n2)c1 [Compound V-71]
– | < 1000 | COCCNC(=O)c1cc2c(ccc3cnc(Nc4cccc(S(C)(=O)=O)c4)nc32)s1 [Compound V-134]
– | < 1000 | O=C(c1cc2c(ccc3cnc(Nc4cccnc4)nc32)s1)N1CCNCC1 [Compound V-117]
– | < 1000 | CC(C)N(C)C(=O)c1cc2c(ccc3cnc(Nc4cccc(S(C)(=O)=O)c4)nc32)s1 [Compound V-140]
– | < 1000 | CS(=O)(=O)c1cccc(Nc2ncc3ccc4sc(C(=O)N5CCC[C@H]5CO)cc4c3n2)c1 [Compound V-142]
– | < 1000 | COCCN(C)C(=O)c1cc2c(ccc3cnc(Nc4cccc(S(C)(=O)=O)c4)nc32)s1 [Compound V-139]
– | < 1000 | CS(=O)(=O)c1cccc(Nc2ncc3ccc4sc(C(=O)NC5CCOCC5)cc4c3n2)c1 [Compound V-150]
– | < 1000 | CS(=O)(=O)c1cccc(Nc2ncc3ccc4sc(C(=O)N5CCCC5)cc4c3n2)c1 [Compound V-130]
– | < 1000 | COC[C@H]1CCCN1C(=O)c1cc2c(ccc3cnc(Nc4cccc(S(C)(=O)=O)c4)nc32)s1 [Compound V-155]
– | < 1000 | O=C(c1cc2c(ccc3cnc(NCCc4cccc(Cl)c4)nc32)s1)N1CCNCC1 [Compound V-167]
– | < 1000 | CN1CCN(C(=O)c2cc3c(ccc4cnc(Nc5cccc(Oc6ccccc6)c5)nc43)s2)CC1 [Compound V-83]
– | < 1000 | CC(=O)N1CCN(C(=O)c2cc3c(ccc4cnc(Nc5cccc(C(C)(C)C)c5)nc43)s2)CC1 [Compound V-105]
– | < 1000 | CN(C)C(=O)c1ccc(Nc2ncc3ccc4sc(C(=O)N5CCNCC5)cc4c3n2)cc1 [Compound V-121]
– | < 1000 | CN1CCN(C(=O)c2cc3c(ccc4cnc(Nc5cccc(Cc6ccccc6)c5)nc43)s2)CC1 [Compound V-86]
– | < 1000 | CC(=O)N1CCC(CNC(=O)c2cc3c(ccc4cnc(Nc5cccc(C(C)(C)C)c5)nc43)s2)CC1 [Compound V-118]
– | < 1000 | CC(C)c1cccc(Nc2ncc3ccc4sc(C(=O)N5CCNCC5)cc4c3n2)c1 [Compound V-81]
– | < 1000 | CC(=O)NC1CCN(C(=O)c2cc3c(ccc4cnc(Nc5cccc(S(C)(=O)=O)c5)nc43)s2)C1 (stereo not drawn) [Compound V-148]
– | < 1000 | Nc1ccc(CCNc2ncc3ccc4sc(C(=O)N5CCNCC5)cc4c3n2)cc1 [Compound V-165]

Ki (Itk [1]) [nM] | Ki (Itk [2]) [nM] | SMILES
– | < 1000 | O=C(c1cc2c(ccc3cnc(Nc4ccc(N5CCNCC5)cc4)nc32)s1)N1CCNCC1 [Compound V-115]
– | < 1000 | CCN(CCN(C)C)C(=O)c1cc2c(ccc3cnc(Nc4cccc(S(C)(=O)=O)c4)nc32)s1 [Compound V-157]
– | < 1000 | CS(=O)(=O)c1cccc(Nc2ncc3ccc4sc(C(=O)NCCO)cc4c3n2)c1 [Compound V-133]
– | < 1000 | O=C(c1cc2c(ccc3cnc(Nc4cccc(F)c4)nc32)s1)N1CCOCC1 [Compound V-61]
– | < 1000 | COCCCNCCC(=O)Nc1cccc(Nc2ncc3ccc4sc(C(=O)N5CCOCC5)cc4c3n2)c1 [Compound V-77]
– | < 1000 | O=C(c1ccc(Nc2ncc3ccc4sc(C(=O)N5CCNCC5)cc4c3n2)cc1)N1CCOCC1 [Compound V-120]
– | < 1000 | CS(=O)(=O)c1cccc(Nc2ncc3ccc4sc(C(=O)NCc5ccccc5)cc4c3n2)c1 [Compound V-129]
– | < 1000 | CN1CCN(C(=O)c2cc3c(ccc4cnc(Nc5cccc(C(C)(C)C)c5)nc43)s2)CC1 [Compound V-56]
– | < 1000 | O=C(c1cc2c(ccc3cnc(Nc4cccc(N5CCNCC5)c4)nc32)s1)N1CCNCC1 [Compound V-113]
– | < 1000 | CC(C)(C)c1cccc(Nc2ncc3ccc4sc(C(=O)N5CCCNCC5)cc4c3n2)c1 [Compound V-109]
– | < 1000 | O=C(c1cc2c(ccc3cnc(NCCc4ccc(O)cc4)nc32)s1)N1CCNCC1 [Compound V-182]
– | < 1000 | CS(=O)(=O)c1cccc(Nc2ncc3ccc4sc(C(=O)NCCN5CCNC5=O)cc4c3n2)c1 [Compound V-145]
– | < 1000 | CN(CCO)C(=O)c1cc2c(ccc3cnc(Nc4cccc(S(C)(=O)=O)c4)nc32)s1 [Compound V-152]
– | < 1000 | COc1ccccc1-c1cccc(Nc2ncc3ccc4sc(C(=O)N5CCNCC5)cc4c3n2)c1 [Compound V-91]
– | < 1000 | CC(=O)N1CCC(CNC(=O)c2cc3c(ccc4cnc(Nc5cccc(C(C)(C)C)c5)nc43)s2)C1 (stereo not drawn) [Compound V-119]
– | < 1000 | CN1CCN(CCC(=O)Nc2cccc(Nc3ncc4ccc5sc(C(=O)N6CCOCC6)cc5c4n3)c2)CC1 [Compound V-70]
– | < 1000 | CS(=O)(=O)c1cccc(Nc2ncc3ccc4sc(C(=O)NCC5CCNCC5)cc4c3n2)c1 [Compound V-149]
– | < 1000 | CC(=O)N1CCCN(C(=O)c2cc3c(ccc4cnc(Nc5cccc(C(C)(C)C)c5)nc43)s2)CC1 [Compound V-106]
– | < 1000 | O=C(CCN1CCOCC1)Nc1cccc(Nc2ncc3ccc4sc(C(=O)N5CCOCC5)cc4c3n2)c1 [Compound V-69]
– | < 1000 | CS(=O)(=O)c1cccc(Nc2ncc3ccc4sc(C(=O)N5CCNCC5)cc4c3n2)c1 [Compound V-100]
– | < 1000 | Cc1cscc1-c1cccc(Nc2ncc3ccc4sc(C(=O)N5CCNCC5)cc4c3n2)c1 [Compound V-96]
– | < 1000 | O=C(c1cc2c(ccc3cnc(NCCc4ccccn4)nc32)s1)N1CCNCC1 [Compound V-179]
– | < 1000 | O=C(c1cc2c(ccc3cnc(Nc4ccc(N5CCOCC5)cc4)nc32)s1)N1CCNCC1 [Compound V-98]
– | < 1000 | O=C(c1cc2c(ccc3cnc(Nc4cccc(-c5ccccc5)c4)nc32)s1)N1CCNCC1 [Compound V-80]
– | < 1000 | CC(C)Oc1cccc(Nc2ncc3ccc4sc(C(=O)N5CCNCC5)cc4c3n2)c1 [Compound V-102]
